Series [1] concerns the target T1, Ecdysteroid receptor complexes extracted from BII cells (Drosophila melanogaster, UniProt P34021).
T1 sequence (P34021 1-878): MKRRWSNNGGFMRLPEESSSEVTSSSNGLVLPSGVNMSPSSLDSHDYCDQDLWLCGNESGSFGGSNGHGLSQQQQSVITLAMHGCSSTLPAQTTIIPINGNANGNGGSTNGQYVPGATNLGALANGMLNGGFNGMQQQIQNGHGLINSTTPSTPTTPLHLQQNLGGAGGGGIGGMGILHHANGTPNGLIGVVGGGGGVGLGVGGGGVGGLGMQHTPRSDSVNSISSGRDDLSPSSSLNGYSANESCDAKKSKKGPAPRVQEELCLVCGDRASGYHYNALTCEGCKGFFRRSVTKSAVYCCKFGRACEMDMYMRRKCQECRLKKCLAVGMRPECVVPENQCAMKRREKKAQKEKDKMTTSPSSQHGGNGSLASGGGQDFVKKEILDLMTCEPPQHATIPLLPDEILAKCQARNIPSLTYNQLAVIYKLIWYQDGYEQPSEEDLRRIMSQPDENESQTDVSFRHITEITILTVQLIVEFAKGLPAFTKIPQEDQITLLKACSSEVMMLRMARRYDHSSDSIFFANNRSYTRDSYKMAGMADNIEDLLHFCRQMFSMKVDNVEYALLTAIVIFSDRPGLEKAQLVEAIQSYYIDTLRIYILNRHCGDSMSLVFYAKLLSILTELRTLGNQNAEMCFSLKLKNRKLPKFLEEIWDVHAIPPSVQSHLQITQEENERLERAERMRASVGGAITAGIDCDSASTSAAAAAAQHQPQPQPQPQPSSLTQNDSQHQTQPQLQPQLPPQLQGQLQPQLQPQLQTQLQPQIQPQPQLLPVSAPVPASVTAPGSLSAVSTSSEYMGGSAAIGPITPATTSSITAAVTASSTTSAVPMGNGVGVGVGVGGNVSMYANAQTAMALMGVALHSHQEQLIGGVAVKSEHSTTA
T1 sequence (P20153 1-508 partner): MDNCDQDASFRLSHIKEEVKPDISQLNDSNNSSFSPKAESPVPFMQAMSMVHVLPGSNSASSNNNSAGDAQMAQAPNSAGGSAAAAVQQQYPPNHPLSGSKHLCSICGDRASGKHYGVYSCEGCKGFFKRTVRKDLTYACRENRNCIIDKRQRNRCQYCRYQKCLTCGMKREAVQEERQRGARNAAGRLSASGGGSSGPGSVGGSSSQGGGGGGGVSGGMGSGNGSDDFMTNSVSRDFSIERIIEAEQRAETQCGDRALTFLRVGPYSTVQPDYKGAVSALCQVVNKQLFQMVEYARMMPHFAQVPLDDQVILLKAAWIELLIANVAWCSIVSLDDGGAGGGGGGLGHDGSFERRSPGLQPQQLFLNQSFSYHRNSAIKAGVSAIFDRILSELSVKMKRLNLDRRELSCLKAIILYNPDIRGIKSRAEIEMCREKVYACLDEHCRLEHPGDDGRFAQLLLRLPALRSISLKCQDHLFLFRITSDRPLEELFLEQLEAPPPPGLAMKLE
In words: Cell-free receptor assay with receptor complexes extracted from BII cells. Type of series: binding. The conditions noted are these: ratio of Kd in cell-free BII extract to EC50 in BII bioassay.

In series [2] the test system is insect EcR proteins when expressed in mammalian cells and partnered by RXR. The conditions noted are these: altered ligand specificity and affinity; no reference given; cited from earlier work.
The format of series [3] is physicochemical. The conditions noted are these: after attempted synthesis.
In a further series the test system is BII cells. The conditions noted are these: ref Dinan, 1985; cited from earlier work.

Turning to `CC(C)(O)CC[C@@H](O)[C@](C)(O)[C@H]1CC[C@@]2(O)C3=CC(=O)[C@@H]4C[C@@H](O)[C@@H](O)C[C@]4(C)[C@H]3[C@H](O)C[C@]12C` [compound 1, turkesterone], the Kd/EC50 result in series [1] was “very low”.

Consider `CC(C)CC[C@@H](O)[C@](C)(O)[C@H]1CC[C@@]2(O)C3=CC(=O)[C@@H]4C[C@@H](O)[C@@H](O)C[C@]4(C)[C@H]3[C@H](O)C[C@]12C` [compound 8, ajugasterone C], for which the Kd/EC50 entry in series [1] was “very low”.

For the compound `CC(C)CC[C@@H](O)[C@](C)(O)[C@H]1CC[C@@]2(O)C3=CC(=O)[C@]4(O)C[C@@H](O)[C@@H](O)C[C@]4(C)[C@H]3[C@H](O)C[C@]12C` [compound 9, muristerone A], the “activity with insect EcR/RXR in mammalian cells” value in series [2] is given as “active, but micromolar concentrations are required”. For the same compound, the Kd/EC50 entry in series [1] was “very low”.

With `CC(C)(O)CC[C@@H](O)[C@](C)(O)[C@H]1CC[C@@]2(O)C3=CC(=O)[C@@H]4C[C@@H](O)[C@@H](O)C[C@]4(C)[C@H]3[C@H](OC(=O)c3ccccc3)C[C@]12C` [turkesterone 11α-benzoate], the stability of product result in series [3] is “unstable, degrading rapidly back to turkesterone”.

As for `CC(C)(O)CC[C@@H](O)[C@](C)(O)[C@H]1CC[C@@]2(O)C3=CC(=O)[C@@H]4C[C@@H](O)[C@@H](O)C[C@]4(C)[C@H]3CC[C@]12C` [compound 6, 20-hydroxyecdysone], in the series with BII cells, the “metabolism by BII cells” value was “do not metabolise”.
